# Measured values published in PubChem BioAssay AID2060490 (Molecular Pharmacology Branch, DTP, NCI, 2025).
# Test system: 885512-296-R-J2-PDC complex spheroid viability
# Experiment: Anticancer human tumor 885512-296-R-J2-PDC patient-derived breast carcinoma cell line growth inhibition [GQUAD]
# Settings: for IC50: curve of first compound; for viability, T/C: stronger effect = lower value
# Outline: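 Tumor cells were grown as complex spheroids with HUVEC endothelial cells and mesenchymal stem cells as stroma. G-quadruplex stabilizers were combined with targeted agents over half-log dilutions from near the clinical Cmax, or from 10 microM.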
# [1] = second compound 0.0316 µM, first compound 0.0316 µM
# [2] = second compound 0.0316 µM, first compound 0.1 µM
# [3] = second compound 0.0316 µM, first compound 0.316 µM
# [4] = second compound 0.0316 µM, first compound 1 µM
# [5] = second compound 0.0316 µM, first compound 3.16 µM
# [6] = second compound 0.0316 µM, first compound 10 µM
# [7] = second compound 0.1 µM, first compound 0.0316 µM
# [8] = second compound 0.1 µM, first compound 0.1 µM
# [9] = second compound 0.1 µM, first compound 0.316 µM
# [10] = second compound 0.1 µM, first compound 1 µM
# [11] = second compound 0.1 µM, first compound 3.16 µM
# [12] = second compound 0.1 µM, first compound 10 µM
# [13] = second compound 0.316 µM, first compound 0.0316 µM
# [14] = second compound 0.316 µM, first compound 0.1 µM
# [15] = second compound 0.316 µM, first compound 0.316 µM
# [16] = second compound 0.316 µM, first compound 1 µM
# [17] = second compound 0.316 µM, first compound 3.16 µM
# [18] = second compound 0.316 µM, first compound 10 µM
# [19] = second compound 1 µM, first compound 0.0316 µM
# [20] = second compound 1 µM, first compound 0.1 µM
# [21] = second compound 1 µM, first compound 0.316 µM
# [22] = second compound 1 µM, first compound 1 µM
# [23] = second compound 1 µM, first compound 3.16 µM
# [24] = second compound 1 µM, first compound 10 µM
# [25] = second compound 3.16 µM, first compound 0.0316 µM
# [26] = second compound 3.16 µM, first compound 0.1 µM
# [27] = second compound 3.16 µM, first compound 0.316 µM
# [28] = second compound 3.16 µM, first compound 1 µM
# [29] = second compound 3.16 µM, first compound 3.16 µM
# [30] = second compound 3.16 µM, first compound 10 µM
# [31] = second compound 10 µM, first compound 0.0316 µM
# [32] = second compound 10 µM, first compound 0.1 µM
# [33] = second compound 10 µM, first compound 0.316 µM
# [34] = second compound 10 µM, first compound 1 µM
# [35] = second compound 10 µM, first compound 3.16 µM
# [36] = second compound 10 µM, first compound 10 µM
# 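Note: spheroids exposed to the compounds for one week.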
# 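Throughout, for viability, T/C: percent of tumor spheroid viability relative to DMSO vehicle control wells.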
compound,measurement,setting,value
C=CCn1c(=O)c2cnc(Nc3ccc(N4CCN(C)CC4)cc3)nc2n1-c1cccc(C(C)(C)O)n1 + Cc1cnc(CNC(=O)c2c(=O)c3ccc(N4CCCN(C)CC4)nc3n3c2sc2ccccc23)cn1,IC50,second compound 0.0316 µM,198 nM
same,IC50,second compound 0.1 µM,53.1 nM
same,IC50,second compound 0.316 µM,< 31.6 nM
same,IC50,second compound 1 µM,< 31.6 nM
same,IC50,second compound 3.16 µM,< 31.6 nM
same,IC50,second compound 10 µM,< 31.6 nM
same,"viability, T/C",[1],91.2%
same,"viability, T/C",[2],80.3%
same,"viability, T/C",[3],29.2%
same,"viability, T/C",[4],7.28%
same,"viability, T/C",[5],2.83%
same,"viability, T/C",[6],2.53%
same,"viability, T/C",[7],58.3%
same,"viability, T/C",[8],39.6%
same,"viability, T/C",[9],19.6%
same,"viability, T/C",[10],6.62%
same,"viability, T/C",[11],2.73%
same,"viability, T/C",[12],3.18%
same,"viability, T/C",[13],21.2%
same,"viability, T/C",[14],16.4%
same,"viability, T/C",[15],12%
same,"viability, T/C",[16],7.07%
same,"viability, T/C",[17],3%
same,"viability, T/C",[18],3.66%
same,"viability, T/C",[19],22.6%
same,"viability, T/C",[20],16.2%
same,"viability, T/C",[21],10.8%
same,"viability, T/C",[22],4.65%
same,"viability, T/C",[23],2.76%
same,"viability, T/C",[24],2.44%
same,"viability, T/C",[25],21.4%
same,"viability, T/C",[26],12.4%
same,"viability, T/C",[27],6.15%
same,"viability, T/C",[28],0.28%
same,"viability, T/C",[29],0.16%
same,"viability, T/C",[30],0.17%
same,"viability, T/C",[31],0.12%
same,"viability, T/C",[32],0.16%
same,"viability, T/C",[33],0.16%
same,"viability, T/C",[34],0.15%
same,"viability, T/C",[35],0.81%
same,"viability, T/C",[36],0.81%
CC(C)(O)C1CCC(Nc2ccc3ncc(-c4cccc(C(F)(F)F)c4)n3n2)CC1 (stereo not drawn) + Cc1cnc(CNC(=O)c2c(=O)c3ccc(N4CCCN(C)CC4)nc3n3c2sc2ccccc23)cn1,IC50,second compound 0.0316 µM,1670 nM
same,IC50,second compound 0.1 µM,1350 nM
same,IC50,second compound 0.316 µM,< 31.6 nM
same,IC50,second compound 1 µM,< 31.6 nM
same,IC50,second compound 3.16 µM,< 31.6 nM
same,IC50,second compound 10 µM,< 31.6 nM
same,"viability, T/C",[1],91.5%
same,"viability, T/C",[2],70.3%
same,"viability, T/C",[3],85.9%
same,"viability, T/C",[4],69.8%
same,"viability, T/C",[5],25.8%
same,"viability, T/C",[6],25.2%
same,"viability, T/C",[7],63.4%
same,"viability, T/C",[8],55.3%
same,"viability, T/C",[9],52.6%
same,"viability, T/C",[10],57.6%
same,"viability, T/C",[11],29.6%
same,"viability, T/C",[12],24.7%
same,"viability, T/C",[13],24.4%
same,"viability, T/C",[14],23.7%
same,"viability, T/C",[15],25.7%
same,"viability, T/C",[16],27.1%
same,"viability, T/C",[17],28.8%
same,"viability, T/C",[18],20.6%
same,"viability, T/C",[19],22.9%
same,"viability, T/C",[20],23.8%
same,"viability, T/C",[21],29.4%
same,"viability, T/C",[22],29.9%
same,"viability, T/C",[23],25.6%
same,"viability, T/C",[24],11.9%
same,"viability, T/C",[25],27.7%
same,"viability, T/C",[26],28%
same,"viability, T/C",[27],24.5%
same,"viability, T/C",[28],23.1%
same,"viability, T/C",[29],0.1%
same,"viability, T/C",[30],0.36%
same,"viability, T/C",[31],0.06%
same,"viability, T/C",[32],0.14%
same,"viability, T/C",[33],0.19%
same,"viability, T/C",[34],0.18%
same,"viability, T/C",[35],0.19%
same,"viability, T/C",[36],0.2%
COc1ncnc(C2CC2)c1-c1ncc2cnn(Cc3ccc(-c4nc(C(F)(F)F)cn4C(C)C)cc3)c2n1 + Cc1cnc(CNC(=O)c2c(=O)c3ccc(N4CCCN(C)CC4)nc3n3c2sc2ccccc23)cn1,IC50,second compound 0.0316 µM,> 10000 nM
same,IC50,second compound 0.1 µM,> 10000 nM
same,IC50,second compound 0.316 µM,< 31.6 nM
same,IC50,second compound 1 µM,< 31.6 nM
same,IC50,second compound 3.16 µM,< 31.6 nM
same,IC50,second compound 10 µM,< 31.6 nM
same,"viability, T/C",[1],94.7%
same,"viability, T/C",[2],76%
same,"viability, T/C",[3],76.9%
same,"viability, T/C",[4],78.2%
same,"viability, T/C",[5],80.6%
same,"viability, T/C",[6],77.7%
same,"viability, T/C",[7],62.5%
same,"viability, T/C",[8],52.4%
same,"viability, T/C",[9],54.4%
same,"viability, T/C",[10],51.4%
same,"viability, T/C",[11],61.5%
same,"viability, T/C",[12],58.8%
same,"viability, T/C",[13],22.1%
same,"viability, T/C",[14],24.6%
same,"viability, T/C",[15],24.9%
same,"viability, T/C",[16],29.5%
same,"viability, T/C",[17],27.3%
same,"viability, T/C",[18],22.5%
same,"viability, T/C",[19],27.8%
same,"viability, T/C",[20],35.9%
same,"viability, T/C",[21],29.4%
same,"viability, T/C",[22],20.9%
same,"viability, T/C",[23],32%
same,"viability, T/C",[24],29.5%
same,"viability, T/C",[25],23.5%
same,"viability, T/C",[26],29.2%
same,"viability, T/C",[27],26.2%
same,"viability, T/C",[28],29.4%
same,"viability, T/C",[29],32.7%
same,"viability, T/C",[30],29.4%
same,"viability, T/C",[31],0.13%
same,"viability, T/C",[32],0.18%
same,"viability, T/C",[33],0.34%
same,"viability, T/C",[34],0.18%
same,"viability, T/C",[35],1.03%
same,"viability, T/C",[36],0.25%
Cc1[nH]c2ccccc2c1CCNCc1ccc(/C=C/C(=O)NO)cc1 + Cc1cnc(CNC(=O)c2c(=O)c3ccc(N4CCCN(C)CC4)nc3n3c2sc2ccccc23)cn1,IC50,second compound 0.0316 µM,15 nM
same,IC50,second compound 0.1 µM,< 0.999 nM
same,IC50,second compound 0.316 µM,< 0.999 nM
same,IC50,second compound 1 µM,< 0.999 nM
same,IC50,second compound 3.16 µM,< 0.999 nM
same,IC50,second compound 10 µM,< 0.999 nM
same,"viability, T/C","second compound 0.0316 µM, first compound 0.000999 µM",83.8%
same,"viability, T/C","second compound 0.0316 µM, first compound 0.00316 µM",80.2%
same,"viability, T/C","second compound 0.0316 µM, first compound 0.00999 µM",52%
same,"viability, T/C",[1],34.5%
same,"viability, T/C","second compound 0.0316 µM, first compound 0.0999 µM",27.9%
same,"viability, T/C",[3],5.52%
same,"viability, T/C","second compound 0.1 µM, first compound 0.000999 µM",52.9%
same,"viability, T/C","second compound 0.1 µM, first compound 0.00316 µM",43.2%
same,"viability, T/C","second compound 0.1 µM, first compound 0.00999 µM",38.6%
same,"viability, T/C",[7],36.9%
same,"viability, T/C","second compound 0.1 µM, first compound 0.0999 µM",29.8%
same,"viability, T/C",[9],6.34%
same,"viability, T/C","second compound 0.316 µM, first compound 0.000999 µM",27.3%
same,"viability, T/C","second compound 0.316 µM, first compound 0.00316 µM",16%
same,"viability, T/C","second compound 0.316 µM, first compound 0.00999 µM",15.3%
same,"viability, T/C",[13],22.8%
same,"viability, T/C","second compound 0.316 µM, first compound 0.0999 µM",25.1%
same,"viability, T/C",[15],5.41%
same,"viability, T/C","second compound 1 µM, first compound 0.000999 µM",17.4%
same,"viability, T/C","second compound 1 µM, first compound 0.00316 µM",14.9%
same,"viability, T/C","second compound 1 µM, first compound 0.00999 µM",19.2%
same,"viability, T/C",[19],15.4%
same,"viability, T/C","second compound 1 µM, first compound 0.0999 µM",13.9%
same,"viability, T/C",[21],0.1%
same,"viability, T/C","second compound 3.16 µM, first compound 0.000999 µM",19.2%
same,"viability, T/C","second compound 3.16 µM, first compound 0.00316 µM",17.6%
same,"viability, T/C","second compound 3.16 µM, first compound 0.00999 µM",0.21%
same,"viability, T/C",[25],0.22%
same,"viability, T/C","second compound 3.16 µM, first compound 0.0999 µM",0.15%
same,"viability, T/C",[27],0.13%
same,"viability, T/C","second compound 10 µM, first compound 0.000999 µM",0.17%
same,"viability, T/C","second compound 10 µM, first compound 0.00316 µM",0.17%
same,"viability, T/C","second compound 10 µM, first compound 0.00999 µM",0.24%
same,"viability, T/C",[31],0.22%
same,"viability, T/C","second compound 10 µM, first compound 0.0999 µM",0.22%
same,"viability, T/C",[33],0.23%
